These results are taken from patent US20240343694A1, “PYRIMIDINE DERIVATIVE, METHOD FOR PREPARING SAME, AND PHARMACEUTICAL COMPOSITION FOR PREVENTING OR TREATING CANCER COMPRISING SAME AS ACTIVE INGREDIENT” (KOREA RESERARCH INSTITUTE OF CHEMICAL TECHNOLOGY, priority 2021, published 2024).

pIC50: −log10 of the molar value.

The target of one test is EGFR del19 (Homo sapiens (Human), UniProt P00533, DEL746-750). Kind of test: HTRF inhibitory activity against EGFR mutant enzyme (EGFR del19). As to conditions: recombinant enzyme, 37° C. for 2 hours. Type of test: biochemical. The essentials:
(§1)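 IC50 was derived from 7 concentrations by HTRF: Eu-anti-pTyr and streptavidin-XL665 for 1 h at room temperature, with the 615/665 nm ratio read. The kinase reaction ran 2 h at 37 °C in Tris pH 7.5 buffer with ATP (stated 50 mM) and biotinylated peptide (0.5 mM). Enzyme was preincubated with compound before substrate was added.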

Another test has as its target EGFR A763_Y764insFHEA (Homo sapiens (Human), UniProt P00533, INS763FHEA). Kind of test: HTRF inhibitory activity against EGFR mutant enzyme (EGFR A763_Y764insFHEA). To be noted: recombinant enzyme, 37° C. for 2 hours. Type of test: biochemical. In outline:
as §1
Background: TR-FRET usually uses a lanthanide donor and a delayed reading to cut background.

In a further test the target is HER2 A775_G776insYVMA (Homo sapiens (Human), UniProt P04626, INS775YVMA). Kind of test: HTRF inhibitory activity against HER2 mutant enzyme. Type of test: biochemical. To be noted: recombinant enzyme, 37° C. for 2 hours. The essentials:
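Recombinant HER2 A775_G776insYVMA preincubated with compound, then […] and biotinylated peptide ([…]) added; 2 h at 37 °C in Tris-HCl pH 7.5 buffer with MgCl2, DTT. HTRF detection (Eu anti-phosphotyrosine/streptavidin-XL665); IC50 from 7 concentrations.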

Test [1] relates to Ba/F3 EGFR D770_N771insSVD. Kind of test: Growth inhibition of Ba/F3 EGFR mutant cells (CellTiter-Glo). It is filed as cell-based. To be noted: Ba/F3 EGFR-D770-N771ins_SVD, 72 hours. In outline:
(§2)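 Ba/F3 cells expressing either EGFR insertion mutant were seeded at 1,000 cells/well and dosed 24 h later at eight concentrations from 0 to 10 μM. After 72 h, viability was read by CellTiter-Glo ATP signal. IC50 (μM) was fitted from the eight-point curves.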

Test [2] has as its system Ba/F3 EGFR V769_D770insASV. The description is as above. It is filed as cell-based. To be noted: 72 hours. In outline:
as §2

The subject of test [3] is Ba/F3 HER2 A775_G776insYVMA. Kind of test: Growth inhibition of Ba/F3 HER2 mutant cells (CellTiter-Glo). Type of test: cell-based. To be noted: Mus musculus, BaF3, 72 hours. In outline:
(§3)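 Ba/F3 cells carrying HER2 A775_G776insYVMA or G776delinsVC were seeded at 1,000 cells/well and dosed 24 h later at 0.01-10 μM (8 concentrations including 0). After 72 h, viability was read as cellular ATP by CellTiter-Glo luminescence, and IC50 values were calculated from the 8-point curves.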
In general terms: In ATP-based viability assays light output follows the ATP content of the culture.

A further test relates to Ba/F3 HER2 G776delinsVC. Described as above. To be noted: Mus musculus, BaF3, 72 hours. Type of test: cell-based. The essentials: as §3

EGFR del19, sequence (P00533 other isoform, or with tags, fused parts or gaps del 1-668/del 746-750 limits assumed): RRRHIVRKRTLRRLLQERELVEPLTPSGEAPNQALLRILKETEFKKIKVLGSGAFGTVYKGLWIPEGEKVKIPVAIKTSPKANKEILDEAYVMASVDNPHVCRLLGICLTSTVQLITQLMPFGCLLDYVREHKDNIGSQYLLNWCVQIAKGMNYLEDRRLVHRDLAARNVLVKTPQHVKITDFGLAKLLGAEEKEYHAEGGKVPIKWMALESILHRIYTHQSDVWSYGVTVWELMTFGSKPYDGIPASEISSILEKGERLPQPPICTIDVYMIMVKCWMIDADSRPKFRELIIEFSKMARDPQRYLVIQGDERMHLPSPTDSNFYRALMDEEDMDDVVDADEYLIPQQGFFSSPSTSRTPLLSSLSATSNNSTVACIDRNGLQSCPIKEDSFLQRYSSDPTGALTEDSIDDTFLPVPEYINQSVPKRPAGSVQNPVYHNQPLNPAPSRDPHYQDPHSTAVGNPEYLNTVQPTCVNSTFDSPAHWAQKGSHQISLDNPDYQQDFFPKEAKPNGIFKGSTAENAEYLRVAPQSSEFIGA
HER2 A775_G776insYVMA, sequence (P04626 other isoform, or with tags, fused parts or gaps del 1-675/ins YVMA behind 775 limits assumed): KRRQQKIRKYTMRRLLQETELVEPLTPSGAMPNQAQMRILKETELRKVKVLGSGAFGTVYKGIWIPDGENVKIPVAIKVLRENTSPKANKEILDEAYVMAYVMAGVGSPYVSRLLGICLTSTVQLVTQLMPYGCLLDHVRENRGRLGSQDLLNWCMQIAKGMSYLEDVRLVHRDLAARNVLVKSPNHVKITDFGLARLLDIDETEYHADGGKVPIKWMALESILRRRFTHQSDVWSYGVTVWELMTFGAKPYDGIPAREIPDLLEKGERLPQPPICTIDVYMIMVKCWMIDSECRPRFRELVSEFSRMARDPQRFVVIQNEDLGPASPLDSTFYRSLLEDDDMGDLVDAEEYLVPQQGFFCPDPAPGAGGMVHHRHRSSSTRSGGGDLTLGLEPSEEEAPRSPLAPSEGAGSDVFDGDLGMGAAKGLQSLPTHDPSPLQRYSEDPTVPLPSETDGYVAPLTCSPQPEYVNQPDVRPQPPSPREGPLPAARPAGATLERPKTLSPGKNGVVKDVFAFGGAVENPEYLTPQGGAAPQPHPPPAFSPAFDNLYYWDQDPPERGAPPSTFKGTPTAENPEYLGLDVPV
EGFR A763_Y764insFHEA, sequence (P00533 other isoform, or with tags, fused parts or gaps del 1-694/ins FHEA behind 763 limits assumed): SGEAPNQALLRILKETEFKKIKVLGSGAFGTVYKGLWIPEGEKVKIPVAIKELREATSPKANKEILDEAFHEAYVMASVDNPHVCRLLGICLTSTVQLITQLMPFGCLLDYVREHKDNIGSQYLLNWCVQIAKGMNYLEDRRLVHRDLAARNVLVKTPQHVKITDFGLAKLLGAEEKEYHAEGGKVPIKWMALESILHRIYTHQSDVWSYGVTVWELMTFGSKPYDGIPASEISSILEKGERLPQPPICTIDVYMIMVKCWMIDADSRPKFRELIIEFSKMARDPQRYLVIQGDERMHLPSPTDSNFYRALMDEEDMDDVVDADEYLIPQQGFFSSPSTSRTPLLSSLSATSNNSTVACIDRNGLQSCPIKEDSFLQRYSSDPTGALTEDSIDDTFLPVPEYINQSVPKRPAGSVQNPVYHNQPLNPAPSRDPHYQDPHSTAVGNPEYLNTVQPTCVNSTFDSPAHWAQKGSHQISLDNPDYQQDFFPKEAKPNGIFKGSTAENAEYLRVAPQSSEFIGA

For orientation: pIC50 means the negative decadic logarithm of the IC50, by convention in mol/L. As to `C=CC(=O)Nc1cc(Nc2ncc(Cl)c(Nc3cccc(C)c3NS(C)(=O)=O)n2)c(OC)cc1N(C)CCN(C)C` [Example 36, N-(5-((5-chloro-4-((3-methyl-2-(methylsulfonamido)phenyl)amino)pyrimidin-2-yl)amino)-2-((2-(dimethylamino)ethyl)(methyl)amino)-4-methoxyphenyl)acrylamide], the pIC50 was over 9.00 on EGFR del19; 9.00 on EGFR A763_Y764insFHEA; 8.00 at HER2 A775_G776insYVMA; 7.52 to 8.00 in test [1]; 7.52 to 8.00 in test [2]; 7.00 to 7.30 in test [3]. In the test with Ba/F3 HER2 G776delinsVC, this molecule had a pIC50 of 7.52 to 8.00.
`C=CC(=O)Nc1cc(Nc2ncc(Cl)c(Nc3cccc(C(C)C)c3N(C)S(C)(=O)=O)n2)c(OC)cc1N(C)CCN(C)C` [Example 37, N-(5-((5-chloro-4-((3-isopropyl-2-(N-methylmethylsulfonamido)phenyl)amino)pyrimidin-2-yl)amino)-2-((2-(dimethylamino)ethyl)(methyl)amino)-4-methoxyphenyl)acrylamide]: the negative logarithm of the IC50 (pIC50) at EGFR del19 was over 9.00; at EGFR A763_Y764insFHEA it was 8.70; at HER2 A775_G776insYVMA, 7.59; in test [1] it was 7.00 to 7.30; in test [2], 7.00 to 7.30; in test [3] it was 7.00 to 7.30. In the test with Ba/F3 HER2 G776delinsVC, this molecule had a pIC50 of 7.30 to 7.52.
In the case of `C=CC(=O)Nc1cc(Nc2ncc(Cl)c(Nc3cccc(C)c3N(C)S(C)(=O)=O)n2)c(OC)cc1N(C)CCN(C)C` [Example 38, N-(5-((5-chloro-4-((3-methyl-2-(N-methylmethylsulfonamido)phenyl)amino)pyrimidin-2-yl)amino)-2-((2-(dimethylamino)ethyl)(methyl)amino)-4-methoxyphenyl)acrylamide], the negative logarithm of the IC50 (pIC50) on EGFR del19 is over 9.00; at EGFR A763_Y764insFHEA it was 8.70; at HER2 A775_G776insYVMA, 7.85; in test [1] it was 7.30 to 7.52; in test [2], 7.30 to 7.52; in test [3], 7.30 to 7.52. In addition, the pIC50 with Ba/F3 HER2 G776delinsVC is over 8.00.
As to `C=CC(=O)Nc1cc(Nc2ncc(Cl)c(Nc3cccc(C)c3N(CC)S(C)(=O)=O)n2)c(OC)cc1N(C)CCN(C)C` [Example 39, N-(5-((5-chloro-4-((2-(N-ethylmethylsulfonamido)-3-methylphenyl)amino)pyrimidin-2-yl)amino)-2-((2-(dimethylamino)ethyl)(methyl)amino)-4-methoxyphenyl)acrylamide], the pIC50 on EGFR del19 was over 9.00; at EGFR A763_Y764insFHEA it was over 9.00; on HER2 A775_G776insYVMA it was 8.10; in test [1], 7.30 to 7.52; in test [2], over 8.00; in test [3], 7.30 to 7.52. Moreover, the pIC50 in the test on Ba/F3 HER2 G776delinsVC was over 8.00.
Turning to `C=CC(=O)Nc1cc(Nc2ncc(Cl)c(Nc3cccc(CC)c3NS(C)(=O)=O)n2)c(OC)cc1N(C)CCN(C)C` [Example 40, N-(5-((5-chloro-4-((3-ethyl-2-(methylsulfonamido)phenyl)amino)pyrimidin-2-yl)amino)-2-((2-(dimethylamino)ethyl)(methyl)amino)-4-methoxyphenyl)acrylamide], the pIC50 at EGFR del19 is over 9.00; on EGFR A763_Y764insFHEA, 9.00; at HER2 A775_G776insYVMA, 8.40; in test [1] it was 7.30 to 7.52; in test [2] it was 7.30 to 7.52; in test [3], 7.30 to 7.52. In the test with Ba/F3 HER2 G776delinsVC, this molecule had a pIC50 of over 8.00.
In the case of `C=CC(=O)Nc1cc(Nc2ncc(Cl)c(Nc3cccc(CC)c3N(C)S(C)(=O)=O)n2)c(OC)cc1N(C)CCN(C)C` [Example 41, N-(5-((5-chloro-4-((3-ethyl-2-(N-methylmethylsulfonamido)phenyl)amino)pyrimidin-2-yl)amino)-2-((2-(dimethylamino)ethyl)(methyl)amino)-4-methoxyphenyl)acrylamide], the pIC50 on EGFR del19 was over 9.00; on EGFR A763_Y764insFHEA, 9.00; on HER2 A775_G776insYVMA, 8.05; in test [1], 7.30 to 7.52; in test [2] it was 7.30 to 7.52; in test [3], 7.00 to 7.30. This molecule also had a pIC50 in the test with Ba/F3 HER2 G776delinsVC of over 8.00.
In the case of `C=CC(=O)Nc1cc(Nc2ncc(Cl)c(Nc3ccc(C)c(C)c3N(C)S(C)(=O)=O)n2)c(OC)cc1N(C)CCN(C)C` [Example 43, N-(5-((5-chloro-4-((3,4-dimethyl-2-(N-methylmethylsulfonamido)phenyl)amino)pyrimidin-2-yl)amino)-2-((2-(dimethylamino)ethyl)(methyl)amino)-4-methoxyphenyl)acrylamide], the pIC50 on EGFR del19 was over 9.00; at EGFR A763_Y764insFHEA it was over 9.00; at HER2 A775_G776insYVMA, 8.10; in test [1], 7.00 to 7.30; in test [2], over 8.00; in test [3], 7.30 to 7.52. In the test on Ba/F3 HER2 G776delinsVC, this molecule showed a pIC50 of over 8.00.
Consider `C=CC(=O)Nc1cc(Nc2ncc(Cl)c(Nc3ccc(C)cc3N(C)S(C)(=O)=O)n2)c(OC)cc1N(C)CCN(C)C` [Example 45, N-(5-((5-chloro-4-((4-methyl-2-(N-methylmethylsulfonamido)phenyl)amino)pyrimidin-2-yl)amino)-2-((2-(dimethylamino)ethyl)(methyl)amino)-4-methoxyphenyl)acrylamide], for which the pIC50 is over 9.00 on EGFR del19; over 9.00 on EGFR A763_Y764insFHEA; 8.10 at HER2 A775_G776insYVMA; over 8.00 in test [1]; over 8.00 in test [2]; over 8.00 in test [3]. Moreover, the pIC50 in the test on Ba/F3 HER2 G776delinsVC was over 8.00.
As for `C=CC(=O)Nc1cc(Nc2ncc(Cl)c(Nc3ccc(C)cc3NS(C)(=O)=O)n2)c(OC)cc1N(C)CCN(C)C` [Example 46, N-(5-((5-chloro-4-((4-methyl-2-(methylsulfonamido)phenyl)amino)pyrimidin-2-yl)amino)-2-((2-(dimethylamino)ethyl)(methyl)amino)-4-methoxyphenyl)acrylamide], the pIC50 on EGFR del19 was over 9.00; on EGFR A763_Y764insFHEA it was over 9.00; at HER2 A775_G776insYVMA, 8.70; in test [1] it was over 8.00; in test [2], 7.30 to 7.52; in test [3], over 8.00. The molecule further gave a negative logarithm of the IC50 (pIC50) with Ba/F3 HER2 G776delinsVC of 7.30 to 7.52.
Take `C=CC(=O)Nc1cc(Nc2ncc(Cl)c(Nc3cccc4c3N(S(C)(=O)=O)CCC4)n2)c(OC)cc1N(C)CCN(C)C` [Example 47, N-(5-((5-chloro-4-((1-(methylsulfonyl)-1,2,3,4-tetrahydroquinolin-8-yl)amino)pyrimidin-2-yl)amino)-2-((2-(dimethylamino)ethyl)(methyl)amino)-4-methoxyphenyl)acrylamide]: the pIC50 on EGFR del19 is over 9.00; at EGFR A763_Y764insFHEA, over 9.00; on HER2 A775_G776insYVMA it was 8.22; in test [1], over 8.00; in test [2] it was over 8.00; in test [3], over 8.00. In the test on Ba/F3 HER2 G776delinsVC, this molecule gave a pIC50 of over 8.00.
`C=CC(=O)Nc1cc(Nc2ncc(Cl)c(Nc3cccc4c3N(S(C)(=O)=O)CCC4)n2)c(OC)cc1N(C)CCNC` [Example 48, N-(5-((5-chloro-4-((1-(methylsulfonyl)-1,2,3,4-tetrahydroquinolin-8-yl)amino)pyrimidin-2-yl)amino)-4-methoxy-2-(methyl(2-(methylamino)ethyl)amino)phenyl)acrylamide]: the negative-log IC50 (pIC50) is 8.52 at EGFR del19; 8.15 on EGFR A763_Y764insFHEA; 7.70 on HER2 A775_G776insYVMA; 7.00 to 7.30 in test [1]; 7.00 to 7.30 in test [2]; 7.00 to 7.30 in test [3]. Also, the pIC50 in the test on Ba/F3 HER2 G776delinsVC was over 8.00.
Take `C=CC(=O)Nc1cc(Nc2ncc(Cl)c(Nc3cccc4c3N(S(C)(=O)=O)CCC4)n2)c(OC)cc1N1CCC(N(C)C)CC1` [Example 49, N-(5-((5-chloro-4-((1-(methylsulfonyl)-1,2,3,4-tetrahydroquinolin-8-yl)amino)pyrimidin-2-yl)amino)-2-(4-(dimethylamino)piperidin-1-yl)-4-methoxyphenyl)acrylamide]: the pIC50 at EGFR del19 was 10.00; on EGFR A763_Y764insFHEA it was 8.00; on HER2 A775_G776insYVMA, 7.22; in test [1] it was 7.00 to 7.30; in test [2] it was 7.00 to 7.30; in test [3] it was 7.00 to 7.30. Moreover, the pIC50 with Ba/F3 HER2 G776delinsVC was over 8.00.
`C=CC(=O)Nc1cc(Nc2ncc(Cl)c(Nc3cccc4c3N(S(C)(=O)=O)CCC4)n2)c(OC)cc1N1CCC(N2CCN(C)CC2)CC1` [Example 50, N-(5-((5-chloro-4-((1-(methylsulfonyl)-1,2,3,4-tetrahydroquinolin-8-yl)amino)pyrimidin-2-yl)amino)-4-methoxy-2-(4-(4-methylpiperazin-1-yl)piperidin-1-yl)phenyl)acrylamide]: the pIC50 at EGFR del19 is over 9.00; at EGFR A763_Y764insFHEA, 8.52; at HER2 A775_G776insYVMA it was 7.22; in test [1] it was 7.00 to 7.30; in test [2] it was 7.00 to 7.30; in test [3], 7.00 to 7.30. In the test on Ba/F3 HER2 G776delinsVC, the pIC50 is over 8.00.
